In ChEMBL document CHEMBL3885861, “Open TG-GATES”:

Organism: Rattus norvegicus
Assay: Open TG-GATES - Regimen: Single
Format: toxicity, organism-based, Sprague-Dawley
Design: regimen Single, gender Male, age 6 weeks
Conditions: in vivo, po, route gavage; for APTT / Bas / Eos / Fbg / Hb / Ht / Lym / MCH / MCHC / MCV / Mono / Neu / PT / Plat / RBC / Ret / WBC: tissue Blood; for KIDNEY_L / KIDNEY_R / KIDNEY_TOTAL: tissue Kidney; for LIVER: tissue Liver; for A/G / ALP / ALT / AST / BUN / CRE / Ca / Cl / DBIL / GLC / IP / K / LDH / Na / PL / RALB / TBIL / TC / TG / TP / gamma-GTP: tissue Plasma
[1] = 50 mg/kg, 3 h, dose level Middle
[2] = 50 mg/kg, 6 h, dose level Middle
[3] = 50 mg/kg, 9 h, dose level Middle
[4] = 50 mg/kg, 24 h, dose level Middle
[5] = 150 mg/kg, 3 h, dose level High
[6] = 150 mg/kg, 6 h, dose level High
[7] = 150 mg/kg, 9 h, dose level High
[8] = 150 mg/kg, 24 h, dose level High

## CN(C)CCC=C1c2ccccc2CCc2ccccc21 [AMITRIPTYLINE]
[1]
  TERMINAL_BW: 194.1 g
  APTT: 16.5 s
  Bas: 0.4%
  Eos: 1%
  Fbg: 273 mg/dL
  Hb: 13.2 g/dL
  Ht: 41.1%
  Lym: 74%
  MCH: 21.1 pg
  MCHC: 32.2%
  MCV: 65.4 fL
  Mono: 3.4%
  Neu: 20.4%
  PT: 15.8 s
  Plat: 128.6 x10_4/uL
  RBC: 629.2 x10_4/ul
  Ret: 9.2%
  WBC: 102.1 x10_2/uL
  KIDNEY_L: 0.9 g
  KIDNEY_R: 0.9 g
  KIDNEY_TOTAL: 1.7 g
  LIVER: 8.7 g
  A/G: 0.8
  ALP: 1574.4 IU/L
  ALT: 62.8 IU/L
  AST: 79 IU/L
  BUN: 8 mg/dL
  CRE: 0.2 mg/dL
  Ca: 11 mg/dL
  Cl: 107.8 meq/L
  DBIL: 0.012 mg/dL
  GLC: 192.8 mg/dL
  IP: 9.3 mg/dL
  K: 4.2 meq/L
  LDH: 90.8 IU/L
  Na: 144.2 meq/L
  PL: 143.2 mg/dL
  RALB: 2.5 g/dL
  TBIL: 0.062 mg/dL
  TC: 78.8 mg/dL
  TG: 42.8 mg/dL
  TP: 5.5 g/dL
  gamma-GTP: 0.8 IU/L
[2]
  TERMINAL_BW: 191.7 g
  APTT: 15.9 s
  Bas: 0.4%
  Eos: 1%
  Fbg: 283 mg/dL
  Hb: 13.1 g/dL
  Ht: 40.7%
  Lym: 72.6%
  MCH: 20.9 pg
  MCHC: 32.4%
  MCV: 64.7 fL
  Mono: 3%
  Neu: 22.4%
  PT: 15.9 s
  Plat: 117.4 x10_4/uL
  RBC: 629.4 x10_4/ul
  Ret: 9.3%
  WBC: 84.5 x10_2/uL
  KIDNEY_L: 0.9 g
  KIDNEY_R: 0.9 g
  KIDNEY_TOTAL: 1.8 g
  LIVER: 7.9 g
  A/G: 0.9
  ALP: 1530.6 IU/L
  ALT: 47 IU/L
  AST: 76.4 IU/L
  BUN: 6.8 mg/dL
  CRE: 0.1 mg/dL
  Ca: 10.7 mg/dL
  Cl: 106.8 meq/L
  DBIL: 0.006 mg/dL
  GLC: 179.2 mg/dL
  IP: 9.9 mg/dL
  K: 4.1 meq/L
  LDH: 65.4 IU/L
  Na: 143.4 meq/L
  PL: 138.2 mg/dL
  RALB: 2.5 g/dL
  TBIL: 0.07 mg/dL
  TC: 81.2 mg/dL
  TG: 34.8 mg/dL
  TP: 5.5 g/dL
  gamma-GTP: 0.8 IU/L
[3]
  TERMINAL_BW: 188 g
  APTT: 16.3 s
  Bas: 0%
  Eos: 1%
  Fbg: 282.6 mg/dL
  Hb: 13.2 g/dL
  Ht: 40.4%
  Lym: 74%
  MCH: 21.1 pg
  MCHC: 32.7%
  MCV: 64.5 fL
  Mono: 2.2%
  Neu: 22%
  PT: 15.7 s
  Plat: 117.9 x10_4/uL
  RBC: 626.2 x10_4/ul
  Ret: 8.6%
  WBC: 86.3 x10_2/uL
  KIDNEY_L: 0.8 g
  KIDNEY_R: 0.8 g
  KIDNEY_TOTAL: 1.6 g
  LIVER: 7.4 g
  A/G: 0.9
  ALP: 1395.8 IU/L
  ALT: 42.4 IU/L
  AST: 73.8 IU/L
  BUN: 8 mg/dL
  CRE: 0.1 mg/dL
  Ca: 10.8 mg/dL
  Cl: 107.2 meq/L
  DBIL: 0.014 mg/dL
  GLC: 170.2 mg/dL
  IP: 9.9 mg/dL
  K: 4.2 meq/L
  LDH: 72.8 IU/L
  Na: 142.4 meq/L
  PL: 143.4 mg/dL
  RALB: 2.5 g/dL
  TBIL: 0.062 mg/dL
  TC: 79.2 mg/dL
  TG: 49.8 mg/dL
  TP: 5.4 g/dL
  gamma-GTP: 1 IU/L
[4]
  TERMINAL_BW: 205.9 g
  APTT: 16.7 s
  Bas: 0.2%
  Eos: 1%
  Fbg: 268 mg/dL
  Hb: 13.1 g/dL
  Ht: 39.8%
  Lym: 79.2%
  MCH: 21.1 pg
  MCHC: 32.8%
  MCV: 64.4 fL
  Mono: 2.6%
  Neu: 16.2%
  PT: 16.4 s
  Plat: 117.1 x10_4/uL
  RBC: 618.8 x10_4/ul
  Ret: 8.8%
  WBC: 101.4 x10_2/uL
  KIDNEY_L: 0.9 g
  KIDNEY_R: 0.9 g
  KIDNEY_TOTAL: 1.7 g
  LIVER: 9.2 g
  A/G: 0.8
  ALP: 1528.4 IU/L
  ALT: 49.8 IU/L
  AST: 72.6 IU/L
  BUN: 14.2 mg/dL
  CRE: 0.2 mg/dL
  Ca: 11 mg/dL
  Cl: 105.2 meq/L
  DBIL: 0.018 mg/dL
  GLC: 181.6 mg/dL
  IP: 7.1 mg/dL
  K: 4.3 meq/L
  LDH: 69.2 IU/L
  Na: 142.6 meq/L
  PL: 153 mg/dL
  RALB: 2.6 g/dL
  TBIL: 0.056 mg/dL
  TC: 82.6 mg/dL
  TG: 97.8 mg/dL
  TP: 5.6 g/dL
  gamma-GTP: 0.2 IU/L
[5]
  TERMINAL_BW: 193.9 g
  APTT: 15.9 s
  Bas: 0.2%
  Eos: 0.4%
  Fbg: 285.6 mg/dL
  Hb: 13.4 g/dL
  Ht: 41.6%
  Lym: 75%
  MCH: 20.9 pg
  MCHC: 32.1%
  MCV: 65 fL
  Mono: 3.2%
  Neu: 20.4%
  PT: 16 s
  Plat: 120.6 x10_4/uL
  RBC: 641.4 x10_4/ul
  Ret: 9.3%
  WBC: 71.3 x10_2/uL
  KIDNEY_L: 0.9 g
  KIDNEY_R: 0.9 g
  KIDNEY_TOTAL: 1.7 g
  LIVER: 8.5 g
  A/G: 0.8
  ALP: 1527.2 IU/L
  ALT: 53.2 IU/L
  AST: 74.6 IU/L
  BUN: 7.8 mg/dL
  CRE: 0.2 mg/dL
  Ca: 10.9 mg/dL
  Cl: 107.4 meq/L
  DBIL: 0.006 mg/dL
  GLC: 188 mg/dL
  IP: 9.9 mg/dL
  K: 4.3 meq/L
  LDH: 67.4 IU/L
  Na: 145.6 meq/L
  PL: 138.8 mg/dL
  RALB: 2.5 g/dL
  TBIL: 0.058 mg/dL
  TC: 77 mg/dL
  TG: 40.6 mg/dL
  TP: 5.5 g/dL
  gamma-GTP: 0.8 IU/L
[6]
  TERMINAL_BW: 191.7 g
  APTT: 16.4 s
  Bas: 0%
  Eos: 0.6%
  Fbg: 273.8 mg/dL
  Hb: 12.7 g/dL
  Ht: 39.3%
  Lym: 74%
  MCH: 20.9 pg
  MCHC: 32.3%
  MCV: 64.6 fL
  Mono: 3.2%
  Neu: 21.2%
  PT: 15.7 s
  Plat: 123.7 x10_4/uL
  RBC: 610.2 x10_4/ul
  Ret: 9.3%
  WBC: 89.4 x10_2/uL
  KIDNEY_L: 0.8 g
  KIDNEY_R: 0.8 g
  KIDNEY_TOTAL: 1.6 g
  LIVER: 7.8 g
  A/G: 0.9
  ALP: 1508.6 IU/L
  ALT: 50.4 IU/L
  AST: 71 IU/L
  BUN: 7.4 mg/dL
  CRE: 0.1 mg/dL
  Ca: 10.7 mg/dL
  Cl: 108.2 meq/L
  DBIL: 0.004 mg/dL
  GLC: 179.6 mg/dL
  IP: 9.9 mg/dL
  K: 4.4 meq/L
  LDH: 57.4 IU/L
  Na: 143.4 meq/L
  PL: 149.6 mg/dL
  RALB: 2.5 g/dL
  TBIL: 0.058 mg/dL
  TC: 85.6 mg/dL
  TG: 28.8 mg/dL
  TP: 5.4 g/dL
  gamma-GTP: 0.6 IU/L
[7]
  TERMINAL_BW: 193.2 g
  APTT: 15.6 s
  Bas: 0%
  Eos: 0.8%
  Fbg: 305.8 mg/dL
  Hb: 13.1 g/dL
  Ht: 40.5%
  Lym: 65.4%
  MCH: 21 pg
  MCHC: 32.4%
  MCV: 64.8 fL
  Mono: 2.6%
  Neu: 30.2%
  PT: 15.6 s
  Plat: 125.8 x10_4/uL
  RBC: 625.2 x10_4/ul
  Ret: 9.1%
  WBC: 70.1 x10_2/uL
  KIDNEY_L: 0.8 g
  KIDNEY_R: 0.8 g
  KIDNEY_TOTAL: 1.7 g
  LIVER: 7.7 g
  A/G: 0.8
  ALP: 1542.6 IU/L
  ALT: 44.8 IU/L
  AST: 68.6 IU/L
  BUN: 7 mg/dL
  CRE: 0.1 mg/dL
  Ca: 10.8 mg/dL
  Cl: 107 meq/L
  DBIL: 0.01 mg/dL
  GLC: 193.4 mg/dL
  IP: 10.7 mg/dL
  K: 4.1 meq/L
  LDH: 82.4 IU/L
  Na: 143.4 meq/L
  PL: 142 mg/dL
  RALB: 2.5 g/dL
  TBIL: 0.06 mg/dL
  TC: 80.8 mg/dL
  TG: 42.2 mg/dL
  TP: 5.5 g/dL
  gamma-GTP: 1 IU/L
[8]
  TERMINAL_BW: 191.9 g
  APTT: 16.6 s
  Bas: 0.2%
  Eos: 1.2%
  Fbg: 277.4 mg/dL
  Hb: 13.6 g/dL
  Ht: 41.4%
  Lym: 80.4%
  MCH: 20.9 pg
  MCHC: 32.8%
  MCV: 63.7 fL
  Mono: 3%
  Neu: 14.6%
  PT: 17 s
  Plat: 123.6 x10_4/uL
  RBC: 649.6 x10_4/ul
  Ret: 8.1%
  WBC: 79.1 x10_2/uL
  KIDNEY_L: 0.9 g
  KIDNEY_R: 0.9 g
  KIDNEY_TOTAL: 1.8 g
  LIVER: 7.6 g
  A/G: 0.8
  ALP: 1505.6 IU/L
  ALT: 40.4 IU/L
  AST: 63 IU/L
  BUN: 13.8 mg/dL
  CRE: 0.2 mg/dL
  Ca: 10.9 mg/dL
  Cl: 105 meq/L
  DBIL: 0.016 mg/dL
  GLC: 182.6 mg/dL
  IP: 8.7 mg/dL
  K: 4.4 meq/L
  LDH: 58 IU/L
  Na: 142.2 meq/L
  PL: 133 mg/dL
  RALB: 2.5 g/dL
  TBIL: 0.062 mg/dL
  TC: 78.8 mg/dL
  TG: 47.8 mg/dL
  TP: 5.6 g/dL
  gamma-GTP: 1 IU/L
